Reference: article PMC12163635, “Synthetic Retinoids for the Modulation of Genomic and Nongenomic Processes in Neurodegenerative Diseases” (ACS Omega, 2025)
Entries after “also recorded” stand apart in the source; their conditions may differ. Like-named read-outs stand apart in the source and are kept apart here.

Columns and labels:
[1] = system: Sil-15 cells containing a RARE driving a lacZ reporter; assay: X-Gal-based RA reporter assay (genomic response); assay type: cell-based; parameters: genomic response Emax (±95% CI): unit not given here; settings: for genomic EC50 compared with ATRA / genomic E max compared with ATRA: nonoverlapping 95% CI; for EC50: read-out: genomic response EC50 (±95% CI), overnight, 10^–6 to 10^–14 M; for EC50 / genomic response Emax (±95% CI): Sil-15 reporter cells; for genomic response Emax (±95% CI): absorbance at 650 nm
Excerpt: Following chemical design and synthesis, the synthetic retinoid library was screened for genomic and nongenomic biological activities and compared to the response of the endogenous retinoid, ATRA. In these assays, the EC50 value represented the concentration of retinoid that gave half-maximal response (potency), while the E max value represented the maximum response achievable from the retinoid (efficacy).
The transcriptional genomic activity of the retinoids was quantified using Sil-15 cells containing a RARE driving a lacZ reporter. […] Twenty-two of the synthetic retinoids were effective in inducing genomic activity. […] In addition, the retinoids varied in their efficacies.
The Sil-15 cell line was used in the X-gal RA reporter assay described below. The cells were grown in Dulbecco’s modified Eagle’s medium (DMEM) containing 10% fetal bovine serum (FCS) (Invitrogen/Gibco), 0.6% penicillin-streptomycin (Gibco) and 0.8 mg/mL G418 sulfate (Sigma) for selection. They were maintained in a humidified atmosphere containing 5% CO2 at 37 °C. The medium was changed three times a week and the cells were passaged at 70% confluence using 0.05% trypsin-EDTA.
Sil-15 cells are F9 teratocarcinoma cells stably transfected with a plasmid containing the LacZ gene under the control of a DR5-type RA response element (RARE). The reporter cell line was used to detect the transcriptional genomic activity of ATRA and other retinoids by colorimetrically quantifying the insoluble blue product generated by β-galactosidase from X-gal during the assay. The assay was performed by plating 100,000 cells per well in the 0.1% gelatin-coated 96-well plates and leaving them to attach overnight. The ATRA/retinoids dilutions ranging from 10^–6 to 10^–14 M were incubated on the reporter cells overnight at 37 °C, in 5% CO2. A standard curve of ATRA was included in each experiment to ensure the reproducibility of the results between assays performed on different days. All the assays for ATRA as well as the retinoids were quantified in triplicate. Serial dilutions of retinoids were prepared from a stock solution under red/orange light. The stock solutions prepared in DMSO for each retinoid varied depending on the solubility of each compound. Each stock was stored at −20 °C and protected from light. The next day, Sil-15 cells were washed with PBS, fixed with 1% glutaraldehyde and 1 mM MgCl2 solution for 15 min, and developed in X-gal developing solution (0.2% X-Gal, 1 mM MgCl2, 3.3 mM potassium ferricyanide and 3.3 mM potassium ferrocyanide in PBS). The plates were read on an E max microplate reader (Molecular Devices) at 650 nm.
(§1) All data are presented as mean ± SEM of three independent experiments with biological triplicates. Statistical analyses were performed in Microsoft Office Excel 2019 or GraphPad Prism 7.0c version (Prism, GraphPad Software, San Diego, CA). Neurite outgrowth data were analyzed by one-way ANOVA with Newman-Keuls multiple comparison test as appropriate; P value <0.05 was considered statistically significant. *P < 0.05, **P < 0.01. Data for X-Gal and ERK1/2 phosphorylation were analyzed using sigmoidal dose–response analysis of log (agonist) versus response curve (stimulation).

[2] = system: SH-SY5Y cells; assay: Neurite outgrowth; assay type: cell-based, human; settings: for induction of neurite outgrowth compared with ATRA: 10 nM; for fold induction at 0.01 µM: Homo sapiens, SH-SY5Y, 120 h, read-out: fold increase in neurite outgrowth
Method: Following the characterization of retinoids for their genomic and nongenomic activities, the ability of retinoids to differentiate and induce neurite outgrowth in the neuroblastoma cell line, SH-SY5Y cells, was examined (Figure ). Neurite outgrowth can be induced in this cell line by ATRA at 10 μM.
SH-SY5Y cell line as used in ERK phosphorylation and neurite outgrowth assays described below. The cells were grown in DMEM containing 10% FCS at 37 °C with 5% CO2. The medium was changed three times a week and the cells were passaged at 70% confluence using 0.05% trypsin-EDTA.
SH-SY5Y cells were plated at 10,000 cells/well in 12-well plates containing 16 mm acid-treated/poly L-lysine-coated glass coverslips. After 24 h, retinoids were added to the medium and tested at two different concentrations, 10 μM and 10 nM, with a final DMSO concentration of 0.01 or 0.0001%, respectively. The plates were incubated for 5 days at 5% CO2/37 °C. All retinoid concentrations were tested in triplicate. Cells were fixed using 4% paraformaldehyde and stained for β-III tubulin (1:1000; Sigma). For each neurite outgrowth experiment, 3 coverslips (in 3 wells) were used. ImageJ software with the NeuronJ plugin was used to quantify neurite outgrowth on stained cells in each of the 10 randomly selected images of each coverslip taken using a Nikon Eclipse E400 fluorescence microscope. The average neurite length was calculated for each image by dividing total neurite length by the total number of neurites per image.
as §1

[3] = 10 nM compound, 5 days, in comparison to nontreated cells

SMILES	genomic EC50 compared with ATRA [1]	EC50 [1]	induction of neurite outgrowth compared with ATRA ([2]; 5 days)	fold induction at 0.01 µM [2, 3]	genomic response Emax (±95% CI) [1]	genomic E max compared with ATRA [1]	fold induction at 0.01 µM [2]
Cc1sc(-c2ccc(C(=O)O)cc2)nc1-c1cnc2c(n1)C(C)(C)CCC2(C)C [Compound 40, 4-[5-Methyl-4-(5,5,8,8-tetramethyl-5,6,7,8-tetrahydroquinoxalin-2-yl)-1,3-thiazol-2-yl]benzoic Acid]	significantly lower EC50 than ATRA	0.00232 nM		1.9	181 (±7.45)	significantly higher E max than ATRA	
Cc1sc(-c2ccc(C(=O)O)cn2)nc1-c1cnc2c(n1)C(C)(C)CCC2(C)C [Compound 41, 6-[5-Methyl-4-(5,5,8,8-tetramethyl-5,6,7,8-tetrahydroquinoxalin-2-yl)-1,3-thiazol-2-yl]pyridine-3-carboxylic Acid]	significantly higher EC50 values than ATRA	16.9 nM		1.7	144 (±16.5)	significantly lower E max than ATRA	
Cc1sc(-c2ccc(C(=O)O)cc2)nc1-c1ccc2c(c1)C(C)(C)CCC2(C)C [GZ25, reference compound]	significantly lower EC50 than ATRA	0.184 nM	induced significant neurite outgrowth compared to ATRA		209 (±15.5)	significantly higher E max than ATRA	1.8

Now from value to molecule, other results behind:

genomic EC50 compared with ATRA [1]	EC50 [1]	SMILES	induction of neurite outgrowth compared with ATRA ([2]; 5 days)	fold induction at 0.01 µM [2, 3]	genomic response Emax (±95% CI) [1]	genomic E max compared with ATRA [1]	fold induction at 0.01 µM [2]
significantly lower EC50 than ATRA		CC1(C)CCC(C)(C)c2nc(C#Cc3ccc(C(=O)O)cc3)cnc21 [Compound 30, 4-[2-(5,5,8,8-Tetramethyl-5,6,7,8-tetrahydroquinoxalin-2-yl)ethynyl]benzoic Acid]	significantly induced neurite outgrowth compared to ATRA; also recorded: even higher activity compared to EC23 and GZ25	2.3			
significantly lower EC50 than ATRA	0.382 nM	CC1(C)CCC(C)(C)c2nc(C#Cc3ccc(C(=O)O)cc3F)cnc21 [Compound 31, 3-Fluoro-4-[2-(5,5,8,8-tetramethyl-5,6,7,8-tetrahydroquinoxalin-2-yl)ethynyl]benzoic Acid]	induced neurite outgrowth but not significantly compared to ATRA				
significantly lower EC50 than ATRA	0.0155 nM	Cc1sc(-c2ccc(C(=O)O)c(F)c2)nc1-c1cnc2c(n1)C(C)(C)CCC2(C)C [Compound 42, 2-Fluoro-4-[5-methyl-4-(5,5,8,8-tetramethyl-5,6,7,8-tetrahydroquinoxalin-2-yl)-1,3-thiazol-2-yl]benzoic Acid]		1.7		significantly higher E max than ATRA	
	1.64 nM	Cc1sc(-c2ccc(C(=O)O)cc2F)nc1-c1cnc2c(n1)C(C)(C)CCC2(C)C [Compound 43, 3-Fluoro-4-[5-methyl-4-(5,5,8,8-tetramethyl-5,6,7,8-tetrahydroquinoxalin-2-yl)-1,3-thiazol-2-yl]benzoic Acid]		1.8	195 (±35.2)	significantly higher E max than ATRA	
